Assay results from ChEMBL document CHEMBL4043245, “Synthesis, characterization, and cellular localization of a fluorescent probe of the antimalarial 8-aminoquinoline primaquine” (Bioorg Med Chem Lett, 2017).
pIC50: −log10 of the molar value. Blank lines part the entries; values can stand above or below the compound they belong to.

Experiments:
[1] = system: HepG2; assay: Cytotoxicity against human HepG2 cells after 24 hrs by MTS assay; assay type: cell-based; settings: HepG2, 24 h
[2] = Drug uptake in nucleus of asexual blood stage of Plasmodium falciparum D10-ACPLEADER-GFP trophozoite forms infected in human erythrocytes at 150 uM after 30 to 45 mins by mitotracker Red dye based fluorescence microscopic analysis; assay type: ADME, cell-based
[3] = system: Erythrocyte; assay: Drug uptake in human erythrocytes after 30 to 45 mins by mitotracker red dye based flow cytometric method; assay type: ADME, cell-based
[4] = system: Plasmodium berghei; assay: Antiplasmodial activity against liver stage chloroquine-susceptible Plasmodium berghei 1052 C11 infected in HepG2 cells after 44 hrs by TopCount microplate luminescence assay; assay type: functional, cell-based; settings: 1052 C11, HepG2, 44 h
[5] = Drug uptake in food vacuole of Plasmodium falciparum D10-ACPLEADER-GFP gametocyte stage 5 infected in human erythrocytes at 150 uM after 30 to 45 mins by mitotracker Red dye based fluorescence microscopic analysis; assay type: ADME, cell-based
[6] = system: Plasmodium falciparum; assay: Antimalarial activity against asexual blood stage of chloroquine-susceptible Plasmodium falciparum D6 infected in human erythrocytes by [3H]-Hypoxanthine uptake assay; assay type: functional, cell-based
[7] = Drug uptake in mitochondria of asexual blood stage of Plasmodium falciparum D10-ACPLEADER-GFP schizont forms infected in human erythrocytes at 150 uM after 30 to 45 mins by mitotracker Red dye based fluorescence microscopic analysis; assay type: ADME, cell-based
[8] = Drug uptake in relict plastid of asexual blood stage of Plasmodium falciparum D10-ACPLEADER-GFP trophozoite forms infected in human erythrocytes at 150 uM after 30 to 45 mins by mitotracker Red dye based fluorescence microscopic analysis; assay type: ADME, cell-based
[9] = Drug uptake in food vacuole of asexual blood stage of Plasmodium falciparum D10-ACPLEADER-GFP ring forms infected in human erythrocytes at 150 uM after 30 to 45 mins by mitotracker Red dye based fluorescence microscopic analysis; assay type: ADME, cell-based
[10] = Drug uptake in cytoplasm of asexual blood stage of Plasmodium falciparum D10-ACPLEADER-GFP trophozoite forms infected in human erythrocytes at 150 uM after 30 to 45 mins by mitotracker Red dye based fluorescence microscopic analysis; assay type: ADME, cell-based
[11] = Drug uptake in food vacuole of asexual blood stage of Plasmodium falciparum D10-ACPLEADER-GFP trophozoite forms infected in human erythrocytes at 150 uM after 30 to 45 mins by mitotracker Red dye based fluorescence microscopic analysis; assay type: ADME, cell-based
[12] = Drug uptake in apicoplast of asexual blood stage of Plasmodium falciparum D10-ACPLEADER-GFP ring forms infected in human erythrocytes at 150 uM after 30 to 45 mins by mitotracker Red dye based fluorescence microscopic analysis; assay type: ADME, cell-based
[13] = Drug uptake in apicoplast of asexual blood stage of Plasmodium falciparum D10-ACPLEADER-GFP trophozoite forms infected in human erythrocytes at 150 uM after 30 to 45 mins by mitotracker Red dye based fluorescence microscopic analysis; assay type: ADME, cell-based
[14] = Drug uptake in human HepG2 cells infected with liver stage chloroquine-susceptible Plasmodium berghei 1052 C11 by mitotracker red dye based fluorescence microscopic analysis; assay type: ADME, cell-based
[15] = Drug uptake in mitochondria of Plasmodium falciparum D10-ACPLEADER-GFP gametocyte stage 4 infected in human erythrocytes at 150 uM after 30 to 45 mins by mitotracker Red dye based fluorescence microscopic analysis; assay type: ADME, cell-based
[16] = Drug uptake in mitochondria of Plasmodium falciparum D10-ACPLEADER-GFP gametocyte stage 5 infected in human erythrocytes at 150 uM after 30 to 45 mins by mitotracker Red dye based fluorescence microscopic analysis; assay type: ADME, cell-based
[17] = Drug uptake in apicoplast of asexual blood stage of Plasmodium falciparum D10-ACPLEADER-GFP schizont forms infected in human erythrocytes at 150 uM after 30 to 45 mins by mitotracker Red dye based fluorescence microscopic analysis; assay type: ADME, cell-based
[18] = Drug uptake in mitochondria of asexual blood stage of Plasmodium falciparum D10-ACPLEADER-GFP ring forms infected in human erythrocytes at 150 uM after 30 to 45 mins by mitotracker Red dye based fluorescence microscopic analysis; assay type: ADME, cell-based
[19] = Drug uptake in cytoplasm of asexual blood stage of Plasmodium falciparum D10-ACPLEADER-GFP schizont forms infected in human erythrocytes at 150 uM after 30 to 45 mins by mitotracker Red dye based fluorescence microscopic analysis; assay type: ADME, cell-based
[20] = Drug uptake in cytoplasm of Plasmodium falciparum D10-ACPLEADER-GFP gametocyte stage 4 infected in human erythrocytes at 150 uM after 30 to 45 mins by mitotracker Red dye based fluorescence microscopic analysis; assay type: ADME, cell-based
[21] = Drug uptake in food vacuole of Plasmodium falciparum D10-ACPLEADER-GFP gametocyte stage 4 infected in human erythrocytes at 150 uM after 30 to 45 mins by mitotracker Red dye based fluorescence microscopic analysis; assay type: ADME, cell-based
[22] = Drug uptake in cytoplasm of asexual blood stage of Plasmodium falciparum D10-ACPLEADER-GFP trophozoite forms infected in human erythrocytes at 150 uM after 30 to 45 mins in presence of primaquine by mitotracker Red dye based fluorescence microscopic analysis; assay type: ADME, cell-based
[23] = Drug uptake in nucleus of asexual blood stage of Plasmodium falciparum D10-ACPLEADER-GFP ring forms infected in human erythrocytes at 150 uM after 30 to 45 mins by mitotracker Red dye based fluorescence microscopic analysis; assay type: ADME, cell-based
[24] = Drug uptake in mitochondria of asexual blood stage of Plasmodium falciparum D10-ACPLEADER-GFP trophozoite forms infected in human erythrocytes at 150 uM after 30 to 45 mins by mitotracker Red dye based fluorescence microscopic analysis; assay type: ADME, cell-based
[25] = system: Plasmodium falciparum; assay: Antimalarial activity against asexual blood stage of chloroquine-resistant Plasmodium falciparum W2 infected in human erythrocytes by [3H]-Hypoxanthine uptake assay; assay type: functional, cell-based
[26] = Drug uptake in cytoplasm of Plasmodium falciparum D10-ACPLEADER-GFP gametocyte stage 5 infected in human erythrocytes at 150 uM after 30 to 45 mins by mitotracker Red dye based fluorescence microscopic analysis; assay type: ADME, cell-based
[27] = system: Plasmodium falciparum; assay: Antimalarial activity against asexual blood stage of chloroquine-susceptible Plasmodium falciparum 3D7 infected in human erythrocytes by [3H]-Hypoxanthine uptake assay; assay type: functional, cell-based
[28] = Drug uptake in nucleus of asexual blood stage of Plasmodium falciparum D10-ACPLEADER-GFP schizont forms infected in human erythrocytes at 150 uM after 30 to 45 mins by mitotracker Red dye based fluorescence microscopic analysis; assay type: ADME, cell-based
[29] = Drug uptake in relict plastid of asexual blood stage of Plasmodium falciparum D10-ACPLEADER-GFP ring forms infected in human erythrocytes at 150 uM after 30 to 45 mins by mitotracker Red dye based fluorescence microscopic analysis; assay type: ADME, cell-based
[30] = Drug uptake in relict plastid of asexual blood stage of Plasmodium falciparum D10-ACPLEADER-GFP schizont forms infected in human erythrocytes at 150 uM after 30 to 45 mins by mitotracker Red dye based fluorescence microscopic analysis; assay type: ADME, cell-based
[31] = Drug uptake in cytoplasm of asexual blood stage of Plasmodium falciparum D10-ACPLEADER-GFP ring forms infected in human erythrocytes at 150 uM after 30 to 45 mins by mitotracker Red dye based fluorescence microscopic analysis; assay type: ADME, cell-based
[32] = Drug uptake in food vacuole of asexual blood stage of Plasmodium falciparum D10-ACPLEADER-GFP schizont forms infected in human erythrocytes at 150 uM after 30 to 45 mins by mitotracker Red dye based fluorescence microscopic analysis; assay type: ADME, cell-based

Compound: COc1cc(NC(C)CCCNC(=O)CCCc2cc(=O)oc3cc(O)ccc23)c2ncccc2c1 (stereo not drawn)
pIC50 [1]: 4.35 | Drug uptake [2]: Not Active | Drug uptake [3]: Not Active | pIC50 [4]: 4.68 | Drug uptake [5]: Not Active | pIC50 [6]: 5.35 | Drug uptake [7]: Not Active | Drug uptake [8]: Not Active | Drug uptake [9]: Not Active | Drug uptake [10]: Active | Drug uptake [11]: Not Active | Drug uptake [12]: Not Active | Drug uptake [13]: Not Active | Drug uptake [14]: Not Active | Drug uptake [15]: Not Active | Drug uptake [16]: Not Active | Drug uptake [17]: Not Active | Drug uptake [18]: Not Active | Drug uptake [19]: Active | Drug uptake [20]: Active | Drug uptake [21]: Not Active | Drug uptake [22]: Not Active | Drug uptake [23]: Not Active | Drug uptake [24]: Not Active | pIC50 [25]: 5.45 | Drug uptake [26]: Active | pIC50 [27]: 4.98 | Drug uptake [28]: Not Active | Drug uptake [29]: Not Active | Drug uptake [30]: Not Active | Drug uptake [31]: Active | Drug uptake [32]: Not Active

Drug uptake [3]: Not Active
Compound: O=c1ccc2ccccc2o1 [COUMARIN]

Compound: COc1cc(NC(C)CCCN)c2ncccc2c1 (stereo not drawn) [PRIMAQUINE]
pIC50 [1]: 4.00 | pIC50 [4]: 4.76 | pIC50 [6]: 5.29 | pIC50 [25]: 5.63 | pIC50 [27]: 5.24
